Consider two compounds from patent US11274332B2, “Methods of administering 3,4-diaminopyridine” (SERB SA, priority 2011, dated 2022).

A short description of data set [1]: Rat PK study, IV and oral TID amifampridine phosphate (Example 4). It is filed as in vivo. As to conditions: rat, after amifampridine phosphate. The procedure: The objective of this study was to determine the absolute bioavailability of amifampridine phosphate and the pharmacokinetics of amifampridine and its 3-N-acetyl metabolite upon single-dose IV and single-day oral dose (TID) administration.
Amifampridine phosphate was administered by IV bolus at 0.8 mg/kg (in saline) to 6 rats/sex and by oral gavage (in water) TID (approximately 6 hours apart) at dose levels of 2, 8, and 25 mg/kg/dose (equivalent to 6, 24, and 75 mg/kg/day) to 12 rats/sex/group, with oral Dose 1 given to fasted rats and Dose 2 and 3 with food ad libitum. For IV bolus dose and oral Dose 1 (dose administration No. 1), blood samples were collected from three animals/sex/timepoint at predose and 0.083 (IV only), 0.17, 0.25, 0.33, 0.5, 0.75, 1, 1.25 (IV only), 1.5, 2, 2.5, 3, and 6 hours post-dose; 0.17, 0.5, and 6 hours following the second oral dose (dose administration No. 2); and 0.17, 0.25, 0.33, 0.5, 0.75, 1, 1.5, 2, 3, 4, 6, 8, and 10 hours following the third oral dose (dose administration No. 3). The second and third oral doses were given at 6 and 12 hours, respectively, after the first dose. LC-MS/MS was used to quantify amifampridine, 3-N-acetyl and 4-N-acetyl amifampridine metabolites in rat plasma samples. […] Noncompartmental analysis was applied to the mean plasma amifampridine and 3-N-acetyl metabolite concentration data for male and female rats. […]

Data set [2] has as its target T1, hKv1.7 (Homo sapiens, UniProt Q96RP8).
T1 construct: expressed in transfected cells; host or cells: CHO cells (transient transfection)
As to the kind of experiment: Whole cell patch clamp inhibition of hKv1.7 current in transiently transfected CHO cells (Example 5). The format is cell-based. As to conditions: 10,000 μM in HB-PS. The procedure:
Chemicals used in solution preparation were purchased from Sigma-Aldrich (St. Louis, Mo.), unless otherwise noted, and were of ACS reagent grade purity or higher. Stock solutions of each test article (100.104 mM and 1.00 mM 3,4-DAP phosphate and 100.023 mM and 336.335 mM N-(4-aminopyridin-3-yl) acetamide HCl) were prepared in sterile water, stored refrigerated and used within one day. […] All test article solutions contained 3% sterile water. The test articles were prepared in sufficient volume to run the assay (typically 50 mL).
CHO cells, transiently transfected with hKv1.7, were cryopreserved in 90% FBS and 10% DMSO. Frozen vials of cells were thawed rapidly in a 37° C. water bath. Cells were transferred to a 15 mL conical tube, 10 mL of growth media (Ham's/F12-PS/10% FBS) was added, the suspension was gently mixed and the tube was centrifuged at approximately 250×g for 5 min. The medium was removed, the cell pellet was resuspended in 20 mL of medium, and cells were triturated to disperse cell clumps. For electrophysiology use, 2 mL of the cell suspension was plated in each 35 mm cell culture dish. Recording began 2-3 hours after plating once the cells settled out of the media and adhered to the bottom of the culture dish. […]
Cells were transferred to the recording chamber and superfused with vehicle control solution. […] Onset and steady state inhibition of hKv1.7 current due to the test article was measured using a pulse pattern with fixed amplitudes (depolarization: +10 mV amplitude, 300 ms duration) repeated at 10-second intervals from a holding potential of −80 mV. Current amplitude was measured at the end of the step to +10 mV. Current was monitored until a new steady state was achieved. […] The IC50 for sustained current was calculated for 3,4-DAP phosphate salt.
For 3,4-DAP phosphate salt, the concentration-response relationship was evaluated at seven concentrations (1, 10, 30, 100, 300, 1000 and 3000 μM) and for N-(4-aminopyridin-3-yl) acetamide HCl salt, the concentration-response relationship was evaluated at three concentrations (100, 1000 and 3000 μM).

T1 sequence (Q96RP8 whole entry): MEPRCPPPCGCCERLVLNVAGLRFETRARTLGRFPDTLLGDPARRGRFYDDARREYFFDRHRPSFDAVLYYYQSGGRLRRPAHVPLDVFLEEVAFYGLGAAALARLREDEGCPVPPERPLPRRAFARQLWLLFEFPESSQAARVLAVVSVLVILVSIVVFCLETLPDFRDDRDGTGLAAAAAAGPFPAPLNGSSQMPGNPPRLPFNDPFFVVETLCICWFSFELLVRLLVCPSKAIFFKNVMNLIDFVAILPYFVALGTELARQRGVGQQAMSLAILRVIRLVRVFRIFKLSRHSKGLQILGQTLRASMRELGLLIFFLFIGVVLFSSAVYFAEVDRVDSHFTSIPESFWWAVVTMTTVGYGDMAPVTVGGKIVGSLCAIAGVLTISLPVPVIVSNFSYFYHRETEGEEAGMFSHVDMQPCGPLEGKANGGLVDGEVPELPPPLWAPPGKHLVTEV

Regarding `CC(=O)Nc1ccncc1N` [4-N-acetyl metabolite], the Cmax in plasma in data set [1] was less than 25 ng/mL. On to `CC(=O)Nc1cnccc1N.Cl` [N-(4-aminopyridin-3-yl) acetamide HCl], for which the “solubility in test formulation” value in data set [2] was “visible precipitate was observed”.
